Assay results published in ChEMBL document CHEMBL1671720, “Optimized Nile Red efflux assay of AcrAB-TolC multidrug efflux system shows competition between substrates” (Antimicrob Agents Chemother, 2010).
Active and inactive are the calls of the source. The rule behind the calls is not given here. Residues, ends and D or L forms follow the SMILES beside them. *: point of attachment. βNA = c1ccc2cc(N*)ccc2c1

Legend:
[1] = test system: Escherichia coli K-12; assay: Inhibition of acrAB AcrAB-TolC in Escherichia coli K-12 3-AG100 overexpressing acrAB AcrAB-TolC assessed as [3H]TMG accumulation at 200 uM by scintillation counter method
[2] = test system: Escherichia coli K-12; assay: Inhibition of acrAB AcrAB-TolC-mediated Nile Red efflux in marR mutant containing Escherichia coli K-12 3-AG102 overexpressing acrAB AcrAB-TolC assessed as time needed for 50% efflux after energization with 50 mM glucose at 1000 uM by spectrofluorometric assay
[3] = test system: Escherichia coli K-12; assay: Inhibition of acrAB AcrAB-TolC-mediated Nile Red efflux in marR mutant containing Escherichia coli K-12 3-AG102 overexpressing acrAB AcrAB-TolC assessed as time needed for 50% efflux after energization with 50 mM glucose at 200 uM by spectrofluorometric assay
[4] = test system: Escherichia coli K-12; assay: Inhibition of acrAB AcrAB-TolC in Escherichia coli K-12 3-AG100 overexpressing acrAB AcrAB-TolC assessed as [3H]TMG accumulation at 800 uM by scintillation counter method
[5] = test system: Escherichia coli K-12; assay: Inhibition of acrAB AcrAB-TolC in Escherichia coli K-12 3-AG100 overexpressing acrAB AcrAB-TolC assessed as [3H]TMG accumulation at 100 uM by scintillation counter method
[6] = test system: Escherichia coli K-12; assay: Inhibition of acrAB AcrAB-TolC-mediated Nile Red efflux in Escherichia coli K-12 3-AG100 overexpressing acrAB AcrAB-TolC assessed as time needed for 50% efflux after energization with 50 mM glucose upto 2 mM by spectrofluorometric assay
[7] = test system: Escherichia coli K-12; assay: Inhibition of acrAB AcrAB-TolC-mediated Nile Red efflux in Escherichia coli K-12 3-AG100 overexpressing acrAB AcrAB-TolC assessed as time needed for 50% efflux after energization with 50 mM glucose by spectrofluorometric assay
[8] = test system: Escherichia coli K-12; assay: Inhibition of acrAB AcrAB-TolC-mediated Nile Red efflux in Escherichia coli K-12 3-AG100 overexpressing acrAB AcrAB-TolC assessed as time needed for 50% efflux after energization with 50 mM glucose at 800 uM by spectrofluorometric assay
[9] = test system: Escherichia coli K-12; assay: Inhibition of acrAB AcrAB-TolC-mediated Nile Red efflux in Escherichia coli K-12 3-AG100 overexpressing acrAB AcrAB-TolC assessed as time needed for 50% efflux after energization with 50 mM glucose at 100 uM by spectrofluorometric assay

Row | SMILES | TIME [2] | TIME [3] | inhibition [4] | other results
1 | CN(C)c1ccc(O)c2c1C[C@H]1C[C@H]3[C@H](N(C)C)C(O)=C(C(N)=O)C(=O)[C@@]3(O)C(O)=C1C2=O | > 0.0556 h | > 0.0556 h |  | inhibition [1]: 45%
2 | CN(C)[C@@H]1C(O)=C(C(N)=O)C(=O)[C@@]2(O)C(O)=C3C(=O)c4c(O)cccc4[C@@](C)(O)[C@H]3C[C@@H]12 | > 0.0556 h | 0.025 h | 27% | 
3 | COc1cccc2c1C(=O)c1c(O)c3c(c(O)c1C2=O)C[C@@](O)(C(=O)CO)C[C@@H]3O[C@H]1C[C@H](N)[C@H](O)[C@H](C)O1 | > 0.0556 h | > 0.0556 h |  | inhibition [5]: 78%
4 | CC(=O)NC[C@H]1CN(c2ccc(N3CCOCC3)c(F)c2)C(=O)O1 |  |  |  | inhibition [6]: inactive
5 | c1ccc([P+](c2ccccc2)(c2ccccc2)c2ccccc2)cc1 | > 0.0556 h | 0.0292 h | 97% | 
6 | CN(C)[C@@H]1C(O)=C(C(N)=O)C(=O)[C@@]2(O)C(O)=C3C(=O)c4c(O)ccc(Cl)c4[C@@](C)(O)[C@H]3C[C@@H]12 | > 0.0556 h | 0.0556 h |  | inhibition [1]: 14%
7 | c1ccc2c(CN3CCNCC3)cccc2c1 | > 0.0556 h | 0.0278 h | 53% | inhibition [7]: Dose-dependent effect; inhibition [8]: Active
8 | C[C@H]1c2cccc(O)c2C(=O)C2=C(O)[C@]3(O)C(=O)C(C(N)=O)=C(O)[C@@H](N(C)C)[C@@H]3[C@@H](O)[C@@H]21 | > 0.0556 h | 0.0472 h | 44% | 
9 | CC[C@H]1OC(=O)[C@H](C)[C@@H](O[C@H]2C[C@@](C)(OC)[C@@H](O)[C@H](C)O2)[C@H](C)[C@@H](O[C@@H]2O[C@H](C)C[C@H](N(C)C)[C@H]2O)[C@](C)(O)C[C@@H](C)C(=O)[C@H](C)[C@@H](O)[C@]1(C)O |  |  |  | inhibition [6]: inactive
10 | N=C(N)NCCC[C@H](NC(=O)[C@@H](N)Cc1ccccc1)C(=O)Nc1ccc2ccccc2c1 (H-Phe-Arg-βNA) |  |  |  | inhibition [7]: Dose-dependent effect; inhibition [9]: Active; inhibition [5]: 60%
11 | N#CC(C#N)=NNc1cccc(Cl)c1 |  |  |  | inhibition [1]: 4.5%
